The values that follow come from patent US20100311714A1, “1H-IMIDAZO[4,5-c]QUINOLINONE COMPOUNDS” (priority 2009, published 2010).

The subject of assay [1] is PKB Ser473 phosphorylation in Rat1-myr-HA-p110 beta cells. The assay can be described thus: Reverse protein array, PKB Ser473 phosphorylation in Rat1-myr-HA-p110 beta cells. As to conditions: Rattus norvegicus, 0.5 h, 30 minutes compound incubation, read-out: p-PKB/IC50_beta. The class given is cell-based.
For assay [2], the system named is S6 Ribosomal Protein phosphorylation Ser235/236 in TSC1 null mouse embryo fibroblast (MEF) cells. Put plainly: Reverse protein array, S6 Ribosomal Protein phosphorylation in TSC1 null MEF cells. It counts as cell-based. The settings on record: 1 h, TSC1-/- MEFs, 60 minutes. The method, boiled down: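 Phospho-S6 (Ser235/236) was quantified by reverse protein array of cell lysates with a phospho-specific primary antibody. […]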

Read-outs that look alike come from different tables or passages of the source.

With `CCOc1ncc(-c2ccc3ncc4c(c3c2)n(-c2cccnc2C)c(=O)n4C)cn1` [Example 2.5, 8-(2-Ethoxy-pyrimidin-5-yl)-3-methyl-1-(2-methyl-pyridin-3-yl)-1,3-dihydro-imidazo[4,5-c]quinolin-2-one], the IC50 is 53.8 nM in assay [1] and 237 nM in assay [2] (read-out: p-S6).
Take `Cc1ncccc1-n1c(=O)n(C)c2cnc3ccc(-c4ccc(CO)nc4)cc3c21` [Example 2.6, 8-(6-Hydroxymethyl-pyridin-3-yl)-3-methyl-1-(2-methyl-pyridin-3-yl)-1,3-dihydro-imidazo[4,5-c]quinolin-2-one]: the IC50 in assay [1] came out at 72.9 nM; in assay [2] (read-out: p-S6), 66.1 nM.
Taken in the same sequence, the figures for `Cc1ncccc1-n1c(=O)n(C)c2cnc3ccc(-c4ccc(N)nc4)cc3c21` [Example 2.7, 8-(6-Amino-pyridin-3-yl)-3-methyl-1-(2-methyl-pyridin-3-yl)-1,3-dihydro-imidazo[4,5-c]quinolin-2-one] were 19.2 nM and 12.4 nM.
On to `Cc1ncccc1-n1c(=O)n(C)c2cnc3ccc(-c4ccc(OCCCN(C)C)nc4)cc3c21` [Example 2.10, 8-[6-(3-Dimethylamino-propoxy)-pyridin-3-yl]-3-methyl-1-(2-methyl-pyridin-3-yl)-1,3-dihydro-imidazo[4,5-c]quinolin-2-one], for which the values for the IC50 in assay [1] and in assay [2] (read-out: p-S6) were 84.2 nM and 159 nM, respectively.
For the compound `Cc1ncccc1-n1c(=O)n(C)c2cnc3ccc(-c4cnc(N)c(C(F)(F)F)c4)cc3c21` [Example 2.11, 8-(6-Amino-5-trifluoromethyl-pyridin-3-yl)-3-methyl-1-(2-methyl-pyridin-3-yl)-1,3-dihydro-imidazo[4,5-c]quinolin-2-one], the IC50 in assay [1] is 9.92 nM; in assay [2] (read-out: p-S6) it was 2.35 nM.
Taken in the same sequence, the figures for `COc1ccc(-c2ccc3ncc4c(c3c2)n(-c2cccnc2C)c(=O)n4C)cn1` [Example 2.12, 8-(6-Methoxy-pyridin-3-yl)-3-methyl-1-(2-methyl-pyridin-3-yl)-1,3-dihydro-imidazo[4,5-c]quinolin-2-one] were 19.8 nM and 18 nM.
`CNc1ccc(-c2ccc3ncc4c(c3c2)n(-c2cccnc2C)c(=O)n4C)cn1` [Example 2.13, 3-Methyl-8-(6-methylamino-pyridin-3-yl)-1-(2-methyl-pyridin-3-yl)-1,3-dihydro-imidazo[4,5-c]quinolin-2-one]: the IC50 in assay [1] was found to be 18.7 nM; in assay [2] (read-out: p-S6) it was 2.78 nM.
Regarding `Cc1ncccc1-n1c(=O)n(C)c2cnc3ccc(-c4cnc(N(C)C)nc4)cc3c21` [Example 2.15, 8-(2-Dimethylamino-pyrimidin-5-yl)-3-methyl-1-(2-methyl-pyridin-3-yl)-1,3-dihydro-imidazo[4,5-c]quinolin-2-one], the IC50 in assay [1] was determined as 101 nM; in assay [2] (read-out: p-S6), 68.2 nM.
Consider `Cc1ncccc1-n1c(=O)n(C)c2cnc3ccc(-c4cncc(NC(C)C)c4)cc3c21` [Example 2.24, 8-(5-Isopropylamino-pyridin-3-yl)-3-methyl-1-(2-methyl-pyridin-3-yl)-1,3-dihydro-imidazo[4,5-c]quinolin-2-one], for which the IC50 in assay [1] amounted to 16.4 nM; in assay [2] (read-out: p-S6 IC50), 4 nM.
With `CNc1cncc(-c2ccc3ncc4c(c3c2)n(-c2cccnc2C)c(=O)n4C)c1` [Example 2.26, 3-Methyl-8-(5-methylamino-pyridin-3-yl)-1-(2-methyl-pyridin-3-yl)-1,3-dihydro-imidazo[4,5-c]quinolin-2-one], the results for the IC50 in assay [1] and in assay [2] (read-out: p-S6 IC50) were 7.4 nM and 6 nM, respectively.
As for `COc1cc(-c2ccc3ncc4c(c3c2)n(-c2cccnc2C)c(=O)n4C)cnc1C(OC)OC` [Example 2.27, 8-(6-Dimethoxymethyl-5-methoxy-pyridin-3-yl)-3-methyl-1-(2-methyl-pyridin-3-yl)-1,3-dihydro-imidazo[4,5-c]quinolin-2-one], the IC50 in assay [1] was 247 nM; in assay [2] (read-out: p-S6 IC50) it was 54 nM.
Taken in the same sequence, the figures for `CCOc1cc(-c2ccc3ncc4c(c3c2)n(-c2cccnc2C)c(=O)n4C)cnc1COC` [Example 2.28, 8-(5-Ethoxy-6-methoxymethyl-pyridin-3-yl)-3-methyl-1-(2-methyl-pyridin-3-yl)-1,3-dihydro-imidazo[4,5-c]quinolin-2-one] were 61 nM and 14 nM.
In the case of `Cc1ncccc1-n1c(=O)n(C)c2cnc3ccc(-c4cncc(N5CCC5)c4)cc3c21` [Example 2.29, 8-(5-Azetidin-1-yl-pyridin-3-yl)-3-methyl-1-(2-methyl-pyridin-3-yl)-1,3-dihydro-imidazo[4,5-c]quinolin-2-one], the IC50 in assay [1] was determined as 19.7 nM; in assay [2] (read-out: p-S6 IC50) it was 5 nM.
As for `CCNc1cc(-c2ccc3ncc4c(c3c2)n(-c2cccnc2C)c(=O)n4C)cnc1CO` [Example 2.31, 8-(5-Ethylamino-6-hydroxymethyl-pyridin-3-yl)-3-methyl-1-(2-methyl-pyridin-3-yl)-1,3-dihydro-imidazo[4,5-c]quinolin-2-one], the figures for the IC50 in assay [1] and in assay [2] (read-out: p-S6 IC50) were 5.7 nM and 21 nM, respectively.
The corresponding values for `CNc1cc(-c2ccc3ncc4c(c3c2)n(-c2cccnc2C)c(=O)n4C)cnc1C` [Example 2.32, 3-Methyl-8-(6-methyl-5-methylamino-pyridin-3-yl)-1-(2-methyl-pyridin-3-yl)-1,3-dihydro-imidazo[4,5-c]quinolin-2-one] are 6 nM and 2 nM.
Turning to `Cc1cccnc1-n1c(=O)n(C)c2cnc3ccc(-c4ccc(C(N)=O)cc4)cc3c21` [Example 3.3, 4-[3-Methyl-1-(3-methyl-pyridin-2-yl)-2-oxo-2,3-dihydro-1H-imidazo[4,5-c]quinolin-8-yl]-benzamide], the IC50 in assay [1] was 259 nM; in assay [2] (read-out: p-S6), 297 nM.
The corresponding values for `Cc1cccnc1-n1c(=O)n(C)c2cnc3ccc(-c4cnc(N)c(C(F)(F)F)c4)cc3c21` [Example 3.12, 8-(6-Amino-5-trifluoromethyl-pyridin-3-yl)-3-methyl-1-(3-methyl-pyridin-2-yl)-1,3-dihydro-imidazo[4,5-c]quinolin-2-one] are 172 nM and 13.2 nM.
With `CCOc1ccc(-c2ccc3ncc4c(c3c2)n(-c2cnccc2C)c(=O)n4C)cn1` [Example 4.2, 8-(6-Ethoxy-pyridin-3-yl)-3-methyl-1-(4-methyl-pyridin-3-yl)-1,3-dihydro-imidazo[4,5-c]quinolin-2-one], the IC50 in assay [1] came out at 149 nM; in assay [2] (read-out: p-S6), 460 nM.
With `COc1ccc(-c2ccc3ncc4c(c3c2)n(-c2cnccc2C)c(=O)n4C)cn1` [Example 4.3, 8-(6-Methoxy-pyridin-3-yl)-3-methyl-1-(4-methyl-pyridin-3-yl)-1,3-dihydro-imidazo[4,5-c]quinolin-2-one], the IC50 came out at 363 nM in assay [1] and 220 nM in assay [2] (read-out: p-S6).
The corresponding values for `Cn1c(=O)n(-c2cccnc2F)c2c3cc(-c4cnc(N)c(C(F)(F)F)c4)ccc3ncc21` [Example 6.2, 8-(6-Amino-5-trifluoromethyl-pyridin-3-yl)-1-(2-fluoro-pyridin-3-yl)-3-methyl-1,3-dihydro-imidazo[4,5-c]quinolin-2-one] are 10.2 nM and 1.47 nM.
As to `Cc1nc(F)ccc1-n1c(=O)n(C)c2cnc3ccc(-c4cnc(N)c(C(F)(F)F)c4)cc3c21` [Example 7.1, 8-(6-Amino-5-trifluoromethyl-pyridin-3-yl)-1-(6-fluoro-2-methyl-pyridin-3-yl)-3-methyl-1,3-dihydro-imidazo[4,5-c]quinolin-2-one], the IC50 in assay [1] was found to be 13.4 nM; in assay [2] (read-out: p-S6), 2.23 nM.
Consider `Cc1nc(F)ccc1-n1c(=O)n(C)c2cnc3ccc(-c4cnc5c(ccn5C)c4)cc3c21` [Example 7.2, 1-(6-Fluoro-2-methyl-pyridin-3-yl)-3-methyl-8-(1-methyl-1H-pyrrolo[2,3-b]pyridin-5-yl)-1,3-dihydro-imidazo[4,5-c]quinolin-2-one], for which the IC50 in assay [1] is 29.5 nM; in assay [2] (read-out: p-S6), 17.9 nM.
Take `CCOc1ccc(-c2ccc3ncc4c(c3c2)n(-c2ccc(F)nc2C)c(=O)n4C)cn1` [Example 7.3, 8-(6-Ethoxy-pyridin-3-yl)-1-(6-fluoro-2-methyl-pyridin-3-yl)-3-methyl-1,3-dihydro-imidazo[4,5-c]quinolin-2-one]: the figures for the IC50 in assay [1] and in assay [2] (read-out: p-S6) were 43.8 nM and 84.3 nM, respectively.
The corresponding values for `CNc1ccc(-c2ccc3ncc4c(c3c2)n(-c2ccc(F)nc2C)c(=O)n4C)cn1` [Example 7.4, 1-(6-Fluoro-2-methyl-pyridin-3-yl)-3-methyl-8-(6-methylamino-pyridin-3-yl)-1,3-dihydro-imidazo[4,5-c]quinolin-2-one] are 8.6 nM and 8.52 nM.
As to `CCOc1cc(-c2ccc3ncc4c(c3c2)n(-c2ccc(F)nc2C)c(=O)n4C)cnc1COC` [Example 7.5, 8-(5-Ethoxy-6-methoxymethyl-pyridin-3-yl)-1-(6-fluoro-2-methyl-pyridin-3-yl)-3-methyl-1,3-dihydro-imidazo[4,5-c]quinolin-2-one], the IC50 in assay [1] came to 82.1 nM; in assay [2] (read-out: p-S6 IC50), 21 nM.
`Cc1nc(F)ccc1-n1c(=O)n(C)c2cnc3ccc(-c4cncc(C(C)(C)O)c4)cc3c21` [Example 7.8, 1-(6-Fluoro-2-methyl-pyridin-3-yl)-8-[5-(1-hydroxy-1-methyl-ethyl)-pyridin-3-yl]-3-methyl-1,3-dihydro-imidazo[4,5-c]quinolin-2-one]: the results for the IC50 in assay [1] and in assay [2] (read-out: p-S6 IC50) were 68.6 nM and 10 nM, respectively.
Consider `CCOc1ccc(-c2ccc3ncc4c(c3c2)n(-c2ccc(N3CCNCC3)nc2OC)c(=O)n4C)cn1` [Example 9.1, 8-(6-Ethoxy-pyridin-3-yl)-1-(2-methoxy-6-piperazin-1-yl-pyridin-3-yl)-3-methyl-1,3-dihydro-imidazo[4,5-c]quinolin-2-one], for which the IC50 in assay [1] was found to be 33.3 nM; in assay [2] (read-out: p-S6), 13.5 nM.
